Measured values as given in patent US10815230B2, “Casein kinase 1 delta inhibitor” (ELECTROPHORETICS LIMITED, priority 2015, dated 2020).

How the values were obtained:
[1] = tested on: TMHT (Thy-1 Mutated Human Tau) mouse; assay: In-vivo efficacy, Morris Water Maze in tau transgenic mice; conditions: 30 mg/kg orally for 8 weeks
Excerpt: Various compounds of different classes (among them also antibody treatments) were positively tested for their efficacy in the TMHT model. Published examples are the γ-secretase modulator CHF5074 (Lanzilotta A, et al. The γ-secretase modulator CHF5074 reduces the accumulation of native hyperphosphoxylated tau in a transgenic mouse model of Alzheimer's disease. J Mol Neurosci. 45(1):22--33 (2010)), sodium selenate (Corcoran N M et al. Sodium selenate specifically activates PP2A phosphatase, dephosphorylates tau and reverses memory deficits in an Alzheimer's disease model. J Clin Neurosci. 17(8):1025-33 (2010)) and grape-seed polyphenol extract (Wang J et al. Grape derived polyphenols attenuate tau neuropathology in a mouse model of Alzheimer's disease. […] The effects of the compounds on learning in the Morris Mater Maze (MWM) were evaluated. Blood (plasma) and brain samples were collected after sacrification. Samples collected at sacrifice were plasma, left cortex, left hippocampus, right cortex, right hippocampus, remainder of left brain hemisphere, remainder of right brain hemisphere. In total 48 animals were used and allocated to 4 treatment groups. The start position of the mouse and the position of the platform (FIG. 1) in the different trials of the MWM were as indicated in Table 9: […] A descriptive statistical analysis was performed on all evaluated parameters. All data were represented as mean ±standard error of mean (SEM). MWM learning curve data of three trials per day were averaged. Over a period of 4 days, the ability to find a hidden platform using visual cues was measured performing 3 trials a day. By comparison of the learning curves, the cognitive abilities of the different treatment groups and possible drug effects were evaluated.

ABL2/ARG = ABL2/ARG (Homo sapiens, UniProt P42684); assay: Kinase selectivity, % remaining activity; type: biochemical; conditions: 10 μM compound, 10 μM ATP, duplicate
Experimental: (§1) A two-tier strategy to determine the selectivity of compound A was applied: first, the compound was tested at a single concentration (in duplicate) to determine the %-remaining activity of the target kinase. Subsequently, the IC50 of compound A and comparative compounds for casein kinase 1 delta were determined.
(§2) Compounds were tested in single dose duplicate mode at a concentration of 10 μM (in DMSO) and reactions were carried out at 10 μM ATP, Table 3 reports the % of remaining activity (relative to DMSO).

ALK5/TGFBR1 = biological target: T1, ALK5/TGFBR1 (Homo sapiens, UniProt P36897); assay: Kinase selectivity, % remaining activity; type: biochemical; conditions: 10 μM compound, 10 μM ATP, duplicate
T1 sequence (P36897 34-503): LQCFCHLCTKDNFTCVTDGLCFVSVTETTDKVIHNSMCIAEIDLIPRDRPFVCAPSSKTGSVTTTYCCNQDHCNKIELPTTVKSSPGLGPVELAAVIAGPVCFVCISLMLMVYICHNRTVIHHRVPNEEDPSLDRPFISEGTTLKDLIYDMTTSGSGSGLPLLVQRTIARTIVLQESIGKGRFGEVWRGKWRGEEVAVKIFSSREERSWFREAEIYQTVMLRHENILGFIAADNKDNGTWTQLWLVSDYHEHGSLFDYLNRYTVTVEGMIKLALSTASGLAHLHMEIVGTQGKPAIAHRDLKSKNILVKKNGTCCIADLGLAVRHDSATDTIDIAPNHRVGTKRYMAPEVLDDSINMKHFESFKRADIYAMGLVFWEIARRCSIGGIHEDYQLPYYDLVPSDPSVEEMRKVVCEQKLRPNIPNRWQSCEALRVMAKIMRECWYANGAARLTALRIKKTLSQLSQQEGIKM
Experimental: as §1, §2

CK1e = CK1e (Homo sapiens, UniProt P49674); assay: Kinase selectivity, % remaining activity; type: biochemical; conditions: 10 μM compound, 10 μM ATP, duplicate
Experimental: as §1, §2

CK1g1 = CK1g1 (Homo sapiens, UniProt Q9HCP0); assay: Kinase selectivity, % remaining activity; type: biochemical; conditions: 10 μM compound, 10 μM ATP, duplicate
Experimental: as §1, §2

CK1g2 = CK1g2 (Homo sapiens, UniProt P78368); assay: Kinase selectivity, % remaining activity; type: biochemical; conditions: 10 μM compound, 10 μM ATP, duplicate
Experimental: as §1, §2

CLK2 = CLK2 (Homo sapiens, UniProt P49760); assay: Kinase selectivity, % remaining activity; type: biochemical; conditions: 10 μM compound, 10 μM ATP, duplicate
Experimental: as §1, §2

EGFR = EGFR (Homo sapiens, UniProt P00533); assay: Kinase selectivity, % remaining activity; type: biochemical; conditions: 10 μM compound, 10 μM ATP, duplicate
Experimental: as §1, §2

EPHA2 = EPHA2 (Homo sapiens, UniProt P29317); assay: Kinase selectivity, % remaining activity; type: biochemical; conditions: 10 μM compound, 10 μM ATP, duplicate
Experimental: as §1, §2

FGFR1 = FGFR1 (Homo sapiens, UniProt P11362); assay: Kinase selectivity, % remaining activity; type: biochemical; conditions: 10 μM compound, 10 μM ATP, duplicate
Experimental: as §1, §2

GSK3B = GSK3B (Homo sapiens, UniProt P49841); assay: Kinase selectivity, % remaining activity; type: biochemical; conditions: 10 μM compound, 10 μM ATP, duplicate
Experimental: as §1, §2

LCK = LCK (Homo sapiens, UniProt P06239); assay: Kinase selectivity, % remaining activity; type: biochemical; conditions: 10 μM compound, 10 μM ATP, duplicate
Experimental: as §1, §2

MSK1/RPS6KA5 = MSK1/RPS6KA5 (Homo sapiens, UniProt O75582); assay: Kinase selectivity, % remaining activity; type: biochemical; conditions: 10 μM compound, 10 μM ATP, duplicate
Experimental: as §1, §2

PIM3 = PIM3 (Homo sapiens, UniProt Q86V86); assay: Kinase selectivity, % remaining activity; type: biochemical; conditions: 10 μM compound, 10 μM ATP, duplicate
Experimental: as §1, §2

RIPK2 = RIPK2 (Homo sapiens, UniProt O43353); assay: Kinase selectivity, % remaining activity; type: biochemical; conditions: 10 μM compound, 10 μM ATP, duplicate
Experimental: as §1, §2

ROCK1 = ROCK1 (Homo sapiens, UniProt Q13464); assay: Kinase selectivity, % remaining activity; type: biochemical; conditions: 10 μM compound, 10 μM ATP, duplicate
Experimental: as §1, §2

TNIK = TNIK (Homo sapiens, UniProt Q9UKE5); assay: Kinase selectivity, % remaining activity; type: biochemical; conditions: 10 μM compound, 10 μM ATP, duplicate
Experimental: as §1, §2

YES/YES1 = YES/YES1 (Homo sapiens, UniProt P07947); assay: Kinase selectivity, % remaining activity; type: biochemical; conditions: 10 μM compound, 10 μM ATP, duplicate
Experimental: as §1, §2

[2] = read-out: % of remaining activity (relative to DMSO)

Sequence of YES/YES1 (P07947 whole entry): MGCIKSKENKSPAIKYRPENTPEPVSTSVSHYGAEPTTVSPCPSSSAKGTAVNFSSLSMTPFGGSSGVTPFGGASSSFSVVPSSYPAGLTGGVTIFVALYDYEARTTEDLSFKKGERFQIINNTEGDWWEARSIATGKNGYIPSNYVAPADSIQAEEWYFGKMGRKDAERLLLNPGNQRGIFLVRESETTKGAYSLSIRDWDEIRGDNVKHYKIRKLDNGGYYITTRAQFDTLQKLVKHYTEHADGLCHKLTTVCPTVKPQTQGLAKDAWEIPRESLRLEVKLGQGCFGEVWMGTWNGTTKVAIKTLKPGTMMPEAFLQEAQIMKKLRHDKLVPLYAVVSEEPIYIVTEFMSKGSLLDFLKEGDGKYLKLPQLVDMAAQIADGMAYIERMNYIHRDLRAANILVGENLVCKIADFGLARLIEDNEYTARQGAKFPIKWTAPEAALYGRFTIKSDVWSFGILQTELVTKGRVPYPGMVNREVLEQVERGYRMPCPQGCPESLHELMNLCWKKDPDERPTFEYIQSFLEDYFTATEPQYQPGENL
Sequence of LCK (P06239 whole entry): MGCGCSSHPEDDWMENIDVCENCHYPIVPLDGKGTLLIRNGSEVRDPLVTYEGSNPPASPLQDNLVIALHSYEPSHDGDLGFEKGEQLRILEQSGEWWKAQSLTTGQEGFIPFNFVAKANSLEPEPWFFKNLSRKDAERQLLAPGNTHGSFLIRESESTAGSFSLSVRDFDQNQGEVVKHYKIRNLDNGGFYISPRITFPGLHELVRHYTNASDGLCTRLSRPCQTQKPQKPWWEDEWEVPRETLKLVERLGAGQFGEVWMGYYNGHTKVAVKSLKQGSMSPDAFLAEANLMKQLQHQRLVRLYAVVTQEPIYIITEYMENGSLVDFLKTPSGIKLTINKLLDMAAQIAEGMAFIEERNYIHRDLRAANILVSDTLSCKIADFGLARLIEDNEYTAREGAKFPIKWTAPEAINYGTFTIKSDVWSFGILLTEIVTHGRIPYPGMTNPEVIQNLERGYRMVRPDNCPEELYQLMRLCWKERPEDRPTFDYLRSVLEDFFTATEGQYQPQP
Sequence of FGFR1 (P11362 22-822): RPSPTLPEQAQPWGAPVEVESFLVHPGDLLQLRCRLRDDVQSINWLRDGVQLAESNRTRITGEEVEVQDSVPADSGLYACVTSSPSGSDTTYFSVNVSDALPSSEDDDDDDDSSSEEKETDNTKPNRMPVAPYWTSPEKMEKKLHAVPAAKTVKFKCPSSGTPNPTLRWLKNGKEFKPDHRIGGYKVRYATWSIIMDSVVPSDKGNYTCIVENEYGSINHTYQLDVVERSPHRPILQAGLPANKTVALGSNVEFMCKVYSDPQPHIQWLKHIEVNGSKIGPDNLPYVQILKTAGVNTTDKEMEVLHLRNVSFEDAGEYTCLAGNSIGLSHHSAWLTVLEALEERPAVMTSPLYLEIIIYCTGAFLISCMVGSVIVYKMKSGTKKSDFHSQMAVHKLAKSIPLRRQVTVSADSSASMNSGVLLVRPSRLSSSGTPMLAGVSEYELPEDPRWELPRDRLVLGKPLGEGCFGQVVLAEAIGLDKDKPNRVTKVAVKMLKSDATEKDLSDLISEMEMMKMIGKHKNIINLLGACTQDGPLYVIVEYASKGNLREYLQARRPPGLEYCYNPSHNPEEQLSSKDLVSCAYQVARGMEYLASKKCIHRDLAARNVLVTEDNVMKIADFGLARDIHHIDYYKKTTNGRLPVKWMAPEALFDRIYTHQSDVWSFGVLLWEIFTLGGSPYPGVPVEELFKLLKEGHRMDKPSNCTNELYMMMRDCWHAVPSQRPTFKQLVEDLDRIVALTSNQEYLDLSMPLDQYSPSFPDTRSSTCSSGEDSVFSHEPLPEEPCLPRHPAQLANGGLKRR
Sequence of MSK1/RPS6KA5 (O75582 whole entry): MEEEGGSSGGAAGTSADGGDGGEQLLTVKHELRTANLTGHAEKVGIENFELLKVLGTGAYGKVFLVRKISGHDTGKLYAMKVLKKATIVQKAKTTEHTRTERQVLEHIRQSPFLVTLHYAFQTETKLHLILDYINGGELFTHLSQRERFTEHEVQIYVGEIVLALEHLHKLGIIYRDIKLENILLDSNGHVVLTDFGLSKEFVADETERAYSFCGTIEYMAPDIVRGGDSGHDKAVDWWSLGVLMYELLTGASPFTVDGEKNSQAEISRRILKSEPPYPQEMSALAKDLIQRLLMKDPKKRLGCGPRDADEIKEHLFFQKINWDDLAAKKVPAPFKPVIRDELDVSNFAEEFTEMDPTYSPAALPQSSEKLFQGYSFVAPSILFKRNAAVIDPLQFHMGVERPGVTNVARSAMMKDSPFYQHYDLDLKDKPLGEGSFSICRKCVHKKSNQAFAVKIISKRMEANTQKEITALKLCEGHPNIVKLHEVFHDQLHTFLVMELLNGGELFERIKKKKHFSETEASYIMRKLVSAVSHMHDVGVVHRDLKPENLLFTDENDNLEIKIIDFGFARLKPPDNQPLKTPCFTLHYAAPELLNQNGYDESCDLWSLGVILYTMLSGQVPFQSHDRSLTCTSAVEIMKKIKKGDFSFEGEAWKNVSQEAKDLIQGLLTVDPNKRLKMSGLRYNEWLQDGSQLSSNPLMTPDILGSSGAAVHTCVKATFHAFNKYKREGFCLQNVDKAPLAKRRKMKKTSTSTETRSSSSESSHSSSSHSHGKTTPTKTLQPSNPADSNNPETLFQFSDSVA
Sequence of TNIK (Q9UKE5 whole entry): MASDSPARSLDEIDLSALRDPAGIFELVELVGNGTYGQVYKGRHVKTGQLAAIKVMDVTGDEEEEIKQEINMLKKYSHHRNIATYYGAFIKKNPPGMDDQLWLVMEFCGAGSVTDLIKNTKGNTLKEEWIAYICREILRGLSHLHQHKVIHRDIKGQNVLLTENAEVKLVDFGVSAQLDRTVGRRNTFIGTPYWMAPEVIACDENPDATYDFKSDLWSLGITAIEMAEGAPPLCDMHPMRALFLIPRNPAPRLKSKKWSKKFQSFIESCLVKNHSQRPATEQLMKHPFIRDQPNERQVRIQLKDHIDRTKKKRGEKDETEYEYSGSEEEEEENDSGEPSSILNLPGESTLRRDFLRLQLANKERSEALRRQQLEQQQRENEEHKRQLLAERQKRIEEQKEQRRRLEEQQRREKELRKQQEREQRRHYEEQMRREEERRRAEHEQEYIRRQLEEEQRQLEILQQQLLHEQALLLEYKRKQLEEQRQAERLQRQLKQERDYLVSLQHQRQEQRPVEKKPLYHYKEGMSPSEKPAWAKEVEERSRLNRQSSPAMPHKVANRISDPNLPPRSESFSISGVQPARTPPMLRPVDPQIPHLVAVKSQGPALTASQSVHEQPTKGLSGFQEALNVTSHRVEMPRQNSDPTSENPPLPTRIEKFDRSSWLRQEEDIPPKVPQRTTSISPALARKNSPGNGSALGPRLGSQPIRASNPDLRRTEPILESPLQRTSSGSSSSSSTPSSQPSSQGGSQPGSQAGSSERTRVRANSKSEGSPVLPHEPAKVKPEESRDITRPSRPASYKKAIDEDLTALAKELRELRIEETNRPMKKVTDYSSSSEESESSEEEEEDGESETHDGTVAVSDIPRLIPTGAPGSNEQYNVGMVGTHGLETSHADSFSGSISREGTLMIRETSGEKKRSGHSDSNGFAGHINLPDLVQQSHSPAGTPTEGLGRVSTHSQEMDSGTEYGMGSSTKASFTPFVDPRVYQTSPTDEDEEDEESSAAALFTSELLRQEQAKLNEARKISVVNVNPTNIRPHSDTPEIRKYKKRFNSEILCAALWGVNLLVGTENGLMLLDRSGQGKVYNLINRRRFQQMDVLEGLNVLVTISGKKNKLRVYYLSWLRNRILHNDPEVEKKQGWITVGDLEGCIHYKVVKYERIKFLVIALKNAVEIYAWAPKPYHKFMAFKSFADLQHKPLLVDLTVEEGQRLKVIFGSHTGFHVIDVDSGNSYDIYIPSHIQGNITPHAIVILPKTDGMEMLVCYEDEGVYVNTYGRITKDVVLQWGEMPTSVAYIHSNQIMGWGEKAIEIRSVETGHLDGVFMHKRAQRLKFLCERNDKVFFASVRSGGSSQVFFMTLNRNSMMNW
Sequence of CK1g2 (P78368 whole entry, species assumed): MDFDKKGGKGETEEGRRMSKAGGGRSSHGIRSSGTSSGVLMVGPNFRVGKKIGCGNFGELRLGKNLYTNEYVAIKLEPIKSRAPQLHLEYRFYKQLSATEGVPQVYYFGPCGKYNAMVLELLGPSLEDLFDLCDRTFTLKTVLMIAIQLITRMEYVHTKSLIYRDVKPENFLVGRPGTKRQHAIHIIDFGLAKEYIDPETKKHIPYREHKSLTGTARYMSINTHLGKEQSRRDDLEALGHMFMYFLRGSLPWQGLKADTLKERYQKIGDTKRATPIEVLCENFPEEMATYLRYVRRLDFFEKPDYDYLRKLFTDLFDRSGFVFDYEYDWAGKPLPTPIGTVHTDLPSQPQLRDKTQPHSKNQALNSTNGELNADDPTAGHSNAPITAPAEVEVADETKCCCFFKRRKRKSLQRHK

Nc1ncc(-c2nc3ccccc3o2)c(-c2ccncc2)n1 [Comparative Compound 324, 5-(1,3-benzoxazol-2-yl)-4-(pyridine-4-yl)pyrimidin-2-amine]
Escape latency (time to reach the target), Mean ± SEM, Day 1 ([1]; Day 1): 54.9 ± 2.66 s | Path length to reach the target, Mean ± SEM, Day 1 ([1]; Day 1): 8.81 ± 0.55 meter | Escape latency (time to reach the target), Mean ± SEM, Day 2 ([1]; Day 2): 46.6 ± 3.82 s | Path length to reach the target, Mean ± SEM, Day 2 ([1]; Day 2): 6.77 ± 0.64 meter | Escape latency (time to reach the target), Mean ± SEM, Day 3 ([1]; Day 3): 39.8 ± 3.95 s | Path length to reach the target, Mean ± SEM, Day 3 ([1]; Day 3): 5.25 ± 0.58 meter | Escape latency (time to reach the target), Mean ± SEM, Day 4 ([1]; Day 4): 36.9 ± 3.87 s | Path length to reach the target, Mean ± SEM, Day 4 ([1]; Day 4): 5.17 ± 0.62 meter | % of remaining activity (relative to DMSO) (ABL2/ARG; listed as Cmp 324): 96.78% | remaining activity at 10 µM (ABL2/ARG; [2]): 101% | % of remaining activity (relative to DMSO) (ALK5/TGFBR1; listed as Cmp 324): 101.71% | remaining activity at 10 µM (ALK5/TGFBR1; [2]): 105% | % of remaining activity (relative to DMSO) (CK1e; listed as Cmp 324): 24.86% | remaining activity at 10 µM (CK1e; [2]): 28.2% | % of remaining activity (relative to DMSO) (CK1g1; listed as Cmp 324): 92.69% | remaining activity at 10 µM (CK1g1; [2]): 99% | % of remaining activity (relative to DMSO) (CK1g2; listed as Cmp 324): 58.69% | remaining activity at 10 µM (CK1g2; [2]): 58% | % of remaining activity (relative to DMSO) (CLK2; listed as Cmp 324): 92.16% | remaining activity at 10 µM (CLK2; [2]): 96.2% | % of remaining activity (relative to DMSO) (EGFR; listed as Cmp 324): 79.83% | remaining activity at 10 µM (EGFR; [2]): 83.8% | % of remaining activity (relative to DMSO) (EPHA2; listed as Cmp 324): 105.62% | remaining activity at 10 µM (EPHA2; [2]): 98.7% | % of remaining activity (relative to DMSO) (FGFR1; listed as Cmp 324): 108.45% | remaining activity at 10 µM (FGFR1; [2]): 104% | % of remaining activity (relative to DMSO) (GSK3B; listed as Cmp 324): 80.19% | remaining activity at 10 µM (GSK3B; [2]): 91.3% | % of remaining activity (relative to DMSO) (LCK; listed as Cmp 324): 95.46% | remaining activity at 10 µM (LCK; [2]): 102% | % of remaining activity (relative to DMSO) (MSK1/RPS6KA5; listed as Cmp 324): 94.78% | remaining activity at 10 µM (MSK1/RPS6KA5; [2]): 81.1% | % of remaining activity (relative to DMSO) (PIM3; listed as Cmp 324): 95.35% | remaining activity at 10 µM (PIM3; [2]): 100% | % of remaining activity (relative to DMSO) (RIPK2; listed as Cmp 324): 92.78% | remaining activity at 10 µM (RIPK2; [2]): 92.2% | % of remaining activity (relative to DMSO) (ROCK1; listed as Cmp 324): 109.68% | remaining activity at 10 µM (ROCK1; [2]): 109% | % of remaining activity (relative to DMSO) (TNIK; listed as Cmp 324): 65.72% | remaining activity at 10 µM (TNIK; [2]): 74.6% | % of remaining activity (relative to DMSO) (YES/YES1; listed as Cmp 324): 95.22% | remaining activity at 10 µM (YES/YES1; [2]): 108%
